The text below walks through data of patent US20220195383A1, “METHOD FOR PRODUCING PLURIPOTENT STEM CELLS” (KANEKA CORPORATION, priority 2019, published 2022).

Test [1] has as its system human iPS cell line 201B7. In words: Quantitative real-time PCR of marker genes after suspension culture with IWP-2. The class given is cell-based. The settings on record: IWP-2 2 μM, line 201B7, day 10 (Example 1). The method, then:
Cells on day 10 of the culture were treated with Accutase for 3 to 10 minutes and dispersed into single cells by pipetting. These cells were lysed using TRIzol™ Reagent (Thermo Fisher Scientific K.K.). Total RNA was isolated and purified from a cell solution obtained by lysing with TRIzol™ Reagent using a PureLink (registered trademark) RNA Mini kit (Thermo Fisher Scientific K.K.). A concentration of the purified RNA was measured using BioSpec-nano (Shimadzu Corporation), and 40 ng was separated. 2 μL of ReverTra Ace (registered trademark) qPCR RT Master Mix (TOYOBO CO., LTD.) and RNase Free dH2O were added to the separated RNA to prepare 10 μL. cDNA synthesis was performed using SimpliAmp Thermal Cycler (Thermo Fisher Scientific K.K.). […] A synthesized cDNA solution was diluted 100-fold with 10 mM Tris-HCl pH 8.0 (NACALAI TESQUE, INC.) and added to a 384-well PCR plate (Thermo Fisher Scientific K.K.) at 5 μL/well. KOD SYBR® qPCR Mix (TOYOBO CO., LTD.), a Forward primer prepared to 50 μM, a Reverse primer prepared to 50 μM, and DEPC-treated water (NACALAI TESQUE, INC.) were mixed at a ratio of 100:1:1:48. This mixed solution was added to the above-mentioned 384-well PCR plate at 15 μL/well and mixed. For the primers, bACT, OCT4, SOX2, Nanog, Brachyury, and SOX17 were used. The 384-well PCR plate was subjected to centrifugal separation to remove air bubbles in the wells, and quantitative real-time PCR analysis was performed using QuantStudio 7 Flex Real-Time PCR System (Thermo Fisher Scientific K.K.).
Suspension culture was performed under a condition in which an amount of WNT protein contained in a unit of a medium in contact with a unit area of a cell surface was maintained at 2.9×10^2 μg/mL·cm^2 or less. Specifically, the human iPS cell line 201B7 maintenance-cultured by the method in Step 1 of Example 1 was treated with Accutase for 3 to 5 minutes to release the cells from the dish. The cells were dispersed into single cells by pipetting. These cells were suspended in a StemFit (registered trademark) AK02N medium containing Y-27632 at a final concentration of 10 μM. A part of the cells was stained with trypan blue to measure the number of living cells. A cell suspension was prepared so that it contained 2×10^5 cells per mL using the StemFit (registered trademark) AK02N medium containing Y-27632 a final concentration of 10 μM. 4 mL of the cell suspension per well was seeded in a 6-well plate for suspension culture (Sumitomo Bakelite Co., Ltd.). IWP-2 (FUJIFILM Wako Pure Chemical Corporation), which is a WNT protein secretion inhibitor, was added to the seeded wells so that a final concentration was 2 μM. The plate in which the cells were seeded was gyrated on a rotary shaker (Optima Instruments) at a speed of 83 rpm so that a gyrating width (diameter) drew a circle of 25 mm along a horizontal plane, and suspension culture was performed at 37° C. in a 5% CO2 environment. The day when the cells were seeded was defined as day 0 of the culture. Passage was performed on day 5 of the culture, and suspension culture was performed until day 10 of the culture. Medium exchange was performed as follows. A total amount of the medium containing cell aggregates was recovered in a centrifuge tube and left to stand for about 5 minutes to precipitate the cell aggregates. Thereafter, the culture supernatant was removed. […]
A general note: Quantitative PCR measures a nucleic acid by following its amplification.

In test [2] the test system is human iPS cell line RPChiPS771-2. Described as above. To be noted: IWP-2 2 μM, line RPChiPS771-2, day 10 (Example 2). It counts as cell-based.
The test system of test [3] is WNT3A protein. In words: ELISA analysis of WNT3A protein in culture supernatant, suspension culture with IWP-2, line 201B7. It counts as cell-based, human. To be noted: IWP-2 2 μM, line 201B7, day 5 (Example 1). As to the method:
A reagent and a reaction plate attached to a WNT3A ELISA kit (Aviva Systems Biology Corporation) were returned to room temperature. A vial of WNT3A Standard attached to the kit was subjected to centrifugal separation, and a powder in the vial was collected. After adding 1 mL of a diluent solution attached to the kit and mixing, the mixture was left to stand at room temperature for 15 minutes to prepare a WNT3A solution at a final concentration of 10 ng/mL. Based on the WNT3A solution at a final concentration of 10 ng/mL, the solution was diluted with the diluent solution attached to the kit to create WNT3A solution dilution series at final concentrations of 0.156 ng/mL, 0.313 ng/mL, 0.625 ng/mL, 1.25 ng/mL, 2.5 ng/mL, and 5 ng/mL. The dilution series of 0.156 ng/mL to 10 ng/mL and the culture supernatant on day 5 of the culture were added to the reaction plate at 100 μL/well, and a plate seal was attached. […]
Absorbance was measured at 450 nm (corrected wavelength 540 nm) using SpectraMax i3x Multi-Mode Detection Platform (Molecular Devices, LLC.), and a concentration of the WNT3A protein contained in the medium was calculated. Furthermore, an amount of the WNT3A protein of cells (pg/10^4 cells) was calculated from the results of measuring the number of living cells on day 5 of the culture according to the following equation. […]

The test system of test [4] is WNT3A protein. Put plainly: ELISA analysis of WNT3A protein in culture supernatant, suspension culture with IWP-2, line RPChiPS771-2. The settings on record: IWP-2 2 μM, line RPChiPS771-2, day 5 (Example 2). It counts as cell-based, human. (An ELISA detects its analyte on a solid surface through an enzyme-linked reagent.)

Regarding `Cc1ccc2nc(NC(=O)CSc3nc4c(c(=O)n3-c3ccccc3)SCC4)sc2c1` [IWP-2], in test [1], the “Relative gene expression level with respect to ACTB in 2 ^∧ Ct, Nanog” value is given as 1.30 × 10^−2; the “Relative gene expression level with respect to ACTB in 2 ^∧ Ct, OCT4” value is listed as 1.77 × 10^−1; the “Relative gene expression level with respect to ACTB in 2 ^∧ Ct, SOX2” value is given as 2.83 × 10^−2. Besides, in test [1] (dash = not detected), the “Relative gene expression level with respect to ACTB in 2 ^∧ Ct, Brachyury” value is reported as “not detected” and the “Relative gene expression level with respect to ACTB in 2 ^∧ Ct, SOX17” value is “not detected”. Further, in test [2], the “Relative gene expression level with respect to ACTB in 2 ^∧ Ct, Nanog” value is recorded as 8.16 × 10^−1; the “Relative gene expression level with respect to ACTB in 2 ^∧ Ct, OCT4” value is 5.72 × 10^−1; the “Relative gene expression level with respect to ACTB in 2 ^∧ Ct, SOX2” value is reported as 2.31 × 10^−2. In test [2] (dash = not detected), the “Relative gene expression level with respect to ACTB in 2 ^∧ Ct, Brachyury” value was “not detected” and the “Relative gene expression level with respect to ACTB in 2 ^∧ Ct, SOX17” value was “not detected”. In addition, in the test with WNT3A protein [3], the “Amount of WNT3A protein contained in unit of medium in contact with unit area of cell surface, average value (n = 10)” value is 2.7 × 10^2 μg/mL · cm^2 and the “Concentration of WNT3A protein contained in medium” value came to 83.9 pg/mL. Also, the “Concentration of WNT3A protein contained in medium” value in the test with WNT3A protein [4] is on record as 53.3 pg/mL.
